Data as given in ChEMBL document CHEMBL1201862, “PubChem BioAssay data set” (2004).
Activity calls are given as the source filed them.

Assays:
Type in all cases: functional
[1] = target: Tyrosine-protein kinase JAK2 (Homo sapiens, UniProt O60674);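 also: JAK2 tested as one member of a kinase panel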
[2] = target: Mitogen-activated protein kinase 1 (Homo sapiens, UniProt P28482)
[3] = target: MAP kinase-activated protein kinase 3 (Homo sapiens, UniProt Q16644);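 also: value comes from a kinome-wide profiling panel in which MAPKAPK3 is one of the panel members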
MAP kinase-activated protein kinase 3, sequence (Q16644 whole entry): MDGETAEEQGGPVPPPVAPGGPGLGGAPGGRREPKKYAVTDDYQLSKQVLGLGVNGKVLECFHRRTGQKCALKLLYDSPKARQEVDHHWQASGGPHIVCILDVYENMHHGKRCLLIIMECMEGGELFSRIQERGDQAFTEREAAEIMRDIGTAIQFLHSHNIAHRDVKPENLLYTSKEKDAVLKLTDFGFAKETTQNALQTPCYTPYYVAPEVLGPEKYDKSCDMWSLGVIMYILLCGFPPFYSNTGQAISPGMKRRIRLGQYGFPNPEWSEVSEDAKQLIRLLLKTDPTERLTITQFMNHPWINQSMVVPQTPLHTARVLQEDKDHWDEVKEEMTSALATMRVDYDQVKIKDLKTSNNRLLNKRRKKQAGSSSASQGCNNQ

[4] = target: Inhibitor of nuclear factor kappa-B kinase subunit alpha (Homo sapiens, UniProt O15111)
[5] = target: Serine/threonine-protein kinase PAK 4 (Homo sapiens, UniProt O96013);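 also: value obtained within a kinome profiling panel in which PAK4 was one of the panel members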
[6] = target: 5'-AMP-activated protein kinase catalytic subunit alpha-1 (Homo sapiens, UniProt Q13131)
5'-AMP-activated protein kinase catalytic subunit alpha-1, sequence (Q13131 whole entry): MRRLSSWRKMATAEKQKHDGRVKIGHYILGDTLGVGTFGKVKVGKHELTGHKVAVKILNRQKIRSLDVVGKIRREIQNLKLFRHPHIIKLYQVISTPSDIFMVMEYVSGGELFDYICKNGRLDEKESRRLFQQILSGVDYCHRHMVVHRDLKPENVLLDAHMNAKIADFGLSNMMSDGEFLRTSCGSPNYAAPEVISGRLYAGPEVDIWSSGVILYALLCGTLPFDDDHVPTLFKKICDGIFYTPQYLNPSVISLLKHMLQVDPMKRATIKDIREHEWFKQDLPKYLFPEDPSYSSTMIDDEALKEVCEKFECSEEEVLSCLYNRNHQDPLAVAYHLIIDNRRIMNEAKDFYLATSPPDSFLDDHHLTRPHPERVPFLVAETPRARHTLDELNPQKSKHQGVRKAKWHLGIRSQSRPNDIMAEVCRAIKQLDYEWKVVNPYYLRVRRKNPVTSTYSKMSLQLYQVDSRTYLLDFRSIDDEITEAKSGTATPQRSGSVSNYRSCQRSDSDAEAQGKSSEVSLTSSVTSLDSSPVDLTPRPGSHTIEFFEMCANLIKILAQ

[7] = target: Cyclin-dependent kinase 1 (Homo sapiens, UniProt P06493);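 also: Kinome-wide panel profiling, with the target listed as panel member CDC2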
Cyclin-dependent kinase 1, sequence (P06493 whole entry): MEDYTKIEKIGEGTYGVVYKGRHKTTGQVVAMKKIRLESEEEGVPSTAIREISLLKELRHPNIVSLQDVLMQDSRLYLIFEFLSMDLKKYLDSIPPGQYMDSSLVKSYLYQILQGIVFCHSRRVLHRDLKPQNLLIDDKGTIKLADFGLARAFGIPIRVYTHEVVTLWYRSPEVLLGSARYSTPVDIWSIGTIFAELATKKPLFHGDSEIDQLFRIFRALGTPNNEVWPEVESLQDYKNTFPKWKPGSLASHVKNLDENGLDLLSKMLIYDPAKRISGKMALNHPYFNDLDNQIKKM

[8] = target: Fibroblast growth factor receptor 3 (Homo sapiens, UniProt P22607)
Fibroblast growth factor receptor 3, sequence (P22607 whole entry): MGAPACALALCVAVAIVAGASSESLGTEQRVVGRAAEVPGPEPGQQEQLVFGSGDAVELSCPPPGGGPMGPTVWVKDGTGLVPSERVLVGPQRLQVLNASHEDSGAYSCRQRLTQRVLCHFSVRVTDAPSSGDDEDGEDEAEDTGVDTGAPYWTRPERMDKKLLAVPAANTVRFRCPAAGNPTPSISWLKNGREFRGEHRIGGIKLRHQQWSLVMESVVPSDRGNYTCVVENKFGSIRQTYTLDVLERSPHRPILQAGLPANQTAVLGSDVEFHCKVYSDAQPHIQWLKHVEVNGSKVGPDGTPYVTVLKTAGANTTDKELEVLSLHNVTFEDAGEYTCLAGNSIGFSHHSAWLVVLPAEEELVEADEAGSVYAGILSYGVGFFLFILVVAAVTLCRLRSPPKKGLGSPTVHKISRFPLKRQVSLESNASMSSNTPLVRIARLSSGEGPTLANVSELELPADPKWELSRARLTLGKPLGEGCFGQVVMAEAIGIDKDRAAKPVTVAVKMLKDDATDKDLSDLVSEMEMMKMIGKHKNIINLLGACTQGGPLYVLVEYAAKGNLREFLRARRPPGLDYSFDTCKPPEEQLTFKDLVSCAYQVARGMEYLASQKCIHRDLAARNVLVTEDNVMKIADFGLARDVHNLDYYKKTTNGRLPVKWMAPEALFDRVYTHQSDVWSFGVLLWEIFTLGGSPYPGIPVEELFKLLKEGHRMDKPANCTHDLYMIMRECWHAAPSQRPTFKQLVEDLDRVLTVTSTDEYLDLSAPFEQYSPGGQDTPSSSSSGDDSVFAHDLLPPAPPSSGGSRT

[9] = target: Serine/threonine-protein kinase 3 (Homo sapiens, UniProt Q13188);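 also: measured as one member of a kinome-wide kinase panel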
[10] = target: Protein kinase C delta type (Homo sapiens, UniProt Q05655)
[11] = target: Macrophage colony-stimulating factor 1 receptor (Homo sapiens, UniProt P07333);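 also: value comes from the Navigating the Kinome screening panel, CSF1R member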
Macrophage colony-stimulating factor 1 receptor, sequence (P07333 whole entry): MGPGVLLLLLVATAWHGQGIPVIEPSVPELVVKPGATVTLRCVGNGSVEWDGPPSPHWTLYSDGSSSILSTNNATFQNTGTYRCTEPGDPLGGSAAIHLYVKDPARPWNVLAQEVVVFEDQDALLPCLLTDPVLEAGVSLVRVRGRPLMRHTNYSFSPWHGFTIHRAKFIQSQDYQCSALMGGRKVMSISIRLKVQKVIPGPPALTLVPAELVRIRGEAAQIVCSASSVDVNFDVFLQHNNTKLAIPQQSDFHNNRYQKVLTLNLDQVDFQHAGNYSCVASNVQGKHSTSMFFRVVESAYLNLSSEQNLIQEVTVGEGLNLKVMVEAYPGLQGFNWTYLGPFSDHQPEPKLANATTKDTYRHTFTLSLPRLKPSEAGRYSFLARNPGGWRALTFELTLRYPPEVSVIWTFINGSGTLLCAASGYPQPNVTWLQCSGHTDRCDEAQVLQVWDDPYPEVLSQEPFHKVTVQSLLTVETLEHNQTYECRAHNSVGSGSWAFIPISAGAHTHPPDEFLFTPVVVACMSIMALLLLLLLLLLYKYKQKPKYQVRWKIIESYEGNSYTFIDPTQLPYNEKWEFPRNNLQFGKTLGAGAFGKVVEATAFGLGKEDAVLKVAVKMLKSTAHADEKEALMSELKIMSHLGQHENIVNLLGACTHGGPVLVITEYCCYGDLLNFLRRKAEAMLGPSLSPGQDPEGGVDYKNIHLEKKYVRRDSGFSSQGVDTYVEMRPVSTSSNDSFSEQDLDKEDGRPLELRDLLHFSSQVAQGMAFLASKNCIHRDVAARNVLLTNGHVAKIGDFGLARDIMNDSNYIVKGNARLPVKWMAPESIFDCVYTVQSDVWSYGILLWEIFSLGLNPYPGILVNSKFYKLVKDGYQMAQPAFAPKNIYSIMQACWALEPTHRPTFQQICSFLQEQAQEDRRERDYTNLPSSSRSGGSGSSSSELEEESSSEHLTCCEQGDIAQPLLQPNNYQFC

[12] = target: Serine/threonine-protein kinase PLK3 (Homo sapiens, UniProt Q9H4B4)
Serine/threonine-protein kinase PLK3, sequence (Q9H4B4 whole entry): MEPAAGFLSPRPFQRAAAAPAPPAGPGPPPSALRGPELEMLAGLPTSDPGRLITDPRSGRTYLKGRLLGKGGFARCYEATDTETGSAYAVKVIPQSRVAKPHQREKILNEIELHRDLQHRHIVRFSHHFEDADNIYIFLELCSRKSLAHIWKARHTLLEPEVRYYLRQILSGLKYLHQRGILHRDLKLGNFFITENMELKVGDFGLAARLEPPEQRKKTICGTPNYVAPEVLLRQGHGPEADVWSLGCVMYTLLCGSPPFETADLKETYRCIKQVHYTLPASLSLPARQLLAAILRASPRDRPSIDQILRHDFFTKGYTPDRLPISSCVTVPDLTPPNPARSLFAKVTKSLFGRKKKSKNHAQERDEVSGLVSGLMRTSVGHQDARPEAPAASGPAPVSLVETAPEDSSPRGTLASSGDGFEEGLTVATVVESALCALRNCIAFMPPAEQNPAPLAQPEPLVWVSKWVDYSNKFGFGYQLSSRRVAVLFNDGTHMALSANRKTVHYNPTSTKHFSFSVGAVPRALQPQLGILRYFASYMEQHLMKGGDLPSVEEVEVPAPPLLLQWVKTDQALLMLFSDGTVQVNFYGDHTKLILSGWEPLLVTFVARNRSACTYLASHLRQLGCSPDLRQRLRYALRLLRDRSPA

[13] = target: Inhibitor of nuclear factor kappa-B kinase subunit beta (Homo sapiens, UniProt O14920)
[14] = target: Ribosomal protein S6 kinase beta-1 (Homo sapiens, UniProt P23443);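 also: measured as one member of a kinome-wide profiling panel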
[15] = target: Glycogen synthase kinase-3 beta (Homo sapiens, UniProt P49841);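 also: value comes from a broad kinome profiling panel, with GSK3B as the panel member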
Glycogen synthase kinase-3 beta, sequence (P49841 whole entry): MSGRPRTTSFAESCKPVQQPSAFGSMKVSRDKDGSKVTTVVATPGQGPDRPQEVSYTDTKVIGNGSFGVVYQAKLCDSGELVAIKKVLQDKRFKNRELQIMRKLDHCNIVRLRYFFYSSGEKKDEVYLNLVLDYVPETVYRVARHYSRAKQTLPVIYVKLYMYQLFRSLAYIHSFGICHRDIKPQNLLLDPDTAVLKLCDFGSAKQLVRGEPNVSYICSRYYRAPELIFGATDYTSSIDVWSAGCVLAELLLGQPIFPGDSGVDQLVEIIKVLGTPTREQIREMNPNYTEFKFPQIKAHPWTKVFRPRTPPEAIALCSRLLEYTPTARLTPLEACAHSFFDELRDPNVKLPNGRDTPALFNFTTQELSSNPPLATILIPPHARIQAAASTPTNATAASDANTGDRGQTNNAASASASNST

[16] = target: Serine/threonine-protein kinase PAK 1 (Homo sapiens, UniProt Q13153)
Serine/threonine-protein kinase PAK 1, sequence (Q13153 whole entry): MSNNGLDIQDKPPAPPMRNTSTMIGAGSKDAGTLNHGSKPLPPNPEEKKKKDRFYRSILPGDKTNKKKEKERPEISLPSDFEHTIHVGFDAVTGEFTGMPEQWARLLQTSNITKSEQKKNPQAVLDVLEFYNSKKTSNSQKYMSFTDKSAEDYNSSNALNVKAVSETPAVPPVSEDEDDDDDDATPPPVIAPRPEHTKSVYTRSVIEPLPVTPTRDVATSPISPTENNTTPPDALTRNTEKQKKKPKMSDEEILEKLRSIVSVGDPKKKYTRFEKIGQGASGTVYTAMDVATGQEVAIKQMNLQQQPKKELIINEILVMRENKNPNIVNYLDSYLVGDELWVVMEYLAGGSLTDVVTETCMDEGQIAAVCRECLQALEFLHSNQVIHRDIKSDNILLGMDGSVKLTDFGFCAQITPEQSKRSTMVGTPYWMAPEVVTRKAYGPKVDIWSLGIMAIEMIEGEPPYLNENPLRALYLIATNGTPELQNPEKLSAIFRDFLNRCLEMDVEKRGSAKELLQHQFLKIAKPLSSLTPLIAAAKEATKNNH

BJ = test: cytotoxicity toward BJ-TERT-LT-ST fibroblasts, dose response, cell-based, RAS-independent, luminescence (AID 1935); conditions: Homo sapiens;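 also: BJ fibroblasts immortalized with TERT plus LT and ST oncogenes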
[17] = HeLa cell cytotoxicity, dose response, cytotoxicity control for MgcRacGAP inhibitor project (AID 624300)
[18] = target: T1, Ubiquitin-conjugating enzyme E2 N (Homo sapiens, UniProt P61088)
T1 sequence (P61088 whole entry): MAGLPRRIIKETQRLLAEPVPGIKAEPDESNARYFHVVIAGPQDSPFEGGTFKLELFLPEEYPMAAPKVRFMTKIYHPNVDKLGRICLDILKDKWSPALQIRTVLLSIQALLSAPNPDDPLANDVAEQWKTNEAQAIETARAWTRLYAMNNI

Mitogen-activated protein kinase 1, sequence (P28482 whole entry): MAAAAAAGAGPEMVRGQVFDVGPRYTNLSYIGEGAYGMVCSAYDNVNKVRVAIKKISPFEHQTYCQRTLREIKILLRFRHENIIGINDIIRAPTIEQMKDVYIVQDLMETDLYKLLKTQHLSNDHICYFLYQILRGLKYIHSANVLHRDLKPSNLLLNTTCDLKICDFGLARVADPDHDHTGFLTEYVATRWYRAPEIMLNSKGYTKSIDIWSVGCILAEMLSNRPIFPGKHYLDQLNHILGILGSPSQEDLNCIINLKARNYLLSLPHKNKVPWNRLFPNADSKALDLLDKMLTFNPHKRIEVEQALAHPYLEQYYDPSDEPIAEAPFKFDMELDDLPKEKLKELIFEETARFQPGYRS

Ki [1] | Ki [2] | Ki [3] | Ki [4] | Ki [5] | Ki [6] | Ki [7] | Ki [8] | Ki [9] | Ki [10] | Ki [11] | Ki [12] | Ki [13] | Ki [14] | Ki [15] | Ki [16] | SMILES | EC50 (BJ) | CC50 [17] | IC50 [18]
1 µM (active) | > 7.94 µM (inactive) | 631 nM (active) | 501 nM (active) | 2.51 µM (active) | 2.51 µM (active) | 631 nM (active) | > 2 µM (inactive) | 501 nM (active) | 316 nM (active) | > 2.51 µM (inactive) | 6.31 µM (active) | > 3.16 µM (inactive) | 316 nM (active) | > 6.31 µM (inactive) | 398 nM (active) | CC(=NNC(=N)N)c1cc(NC(=O)NCCCCCCNC(=O)Nc2cc(C(C)=NNC(=N)N)cc(C(C)=NNC(=N)N)c2)cc(C(C)=NNC(=N)N)c1 | – | – | –
– | – | – | – | – | – | – | – | – | – | – | – | – | – | – | – | Cc1cc(N)c2cc(NC(=O)/C=C/c3ccccc3Cl)ccc2n1 | 2.79 µM (inconclusive) | 5.35 µM (active) | 3 µM (active)
